According to patent US11958861B2, “Spirocyclic lactams as JAK2 V617F inhibitors” (Incyte Corporation, priority 2021, dated 2024):
Where a name gives a salt, the structure may show the parent alone.

Experiments:
[1] = biological target: T1, pseudo-kinase domain (JH2, amino-acids 536-812) of human V617F mutant JAK2 (Homo sapiens, UniProt O60674, F794H/V617F/W659A/W777A); assay: JAK2 LanthaScreen JH2-V617F Binding Assay; details: 1 hour at 25° C.
T1 construct: pseudo-kinase domain (JH2, amino-acids 536-812 with 3 surface mutations W659A, W777A, F794H); purchased BPS Bioscience 79498; host or cells: baculovirus expression system
T1 sequence (O60674 536-812 V617F/W659A/W777A/F794H): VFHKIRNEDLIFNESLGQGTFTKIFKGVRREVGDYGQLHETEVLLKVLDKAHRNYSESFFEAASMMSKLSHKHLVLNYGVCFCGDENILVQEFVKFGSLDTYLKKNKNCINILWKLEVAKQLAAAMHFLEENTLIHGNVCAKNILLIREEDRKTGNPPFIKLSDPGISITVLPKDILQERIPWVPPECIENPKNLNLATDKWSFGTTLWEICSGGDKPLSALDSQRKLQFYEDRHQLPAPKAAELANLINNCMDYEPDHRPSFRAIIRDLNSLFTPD
In short: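 Serially diluted compounds are mixed with 0.26 nM protein, 50 nM fluorescent JAK2-JH2 tracer and 0.25 nM terbium-labelled streptavidin, then incubated 1 h at 25° C. LanthaScreen signal is read, and IC50 is fitted.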

[2] = biological target: T2, pseudo-kinase domain (JH2, amino-acids 536-812) of human Wild Type JAK2 (Homo sapiens, UniProt O60674, F794H/W659A/W777A); assay: JAK2 LanthaScreen JH2-WT Binding Assay; details: 1 hour at 25° C.
T2 construct: pseudo-kinase domain (JH2, amino-acids 536-812 with 3 surface mutations W659A, W777A, F794H); purchased BPS Bioscience 79463; host or cells: baculovirus expression system
T2 sequence (O60674 536-812 W659A/W777A/F794H): as the sequence (O60674 536-812 V617F/W659A/W777A/F794H) above, with F82V counted along it
In short: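 Binding was measured by TR-FRET between streptavidin-Tb (0.25 nM) on biotinylated JH2 (0.145 nM) and 50 nM fluorescent tracer, with compound dose series, 1 h at 25° C; IC50 fitted.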

[3] = biological target: T3, catalytic domain (JH1, amino acids 826-1132) of human JAK2 (Homo sapiens, UniProt O60674); assay: JAK2 LanthaScreen JH1 Binding Assay; details: 2 hours at 25° C.
T3 construct: catalytic domain (JH1, amino acids 826-1132) of human JAK2; purchased Carna Biosciences 08-445-20N; host or cells: baculovirus expression system
T3 sequence (O60674 826-1132): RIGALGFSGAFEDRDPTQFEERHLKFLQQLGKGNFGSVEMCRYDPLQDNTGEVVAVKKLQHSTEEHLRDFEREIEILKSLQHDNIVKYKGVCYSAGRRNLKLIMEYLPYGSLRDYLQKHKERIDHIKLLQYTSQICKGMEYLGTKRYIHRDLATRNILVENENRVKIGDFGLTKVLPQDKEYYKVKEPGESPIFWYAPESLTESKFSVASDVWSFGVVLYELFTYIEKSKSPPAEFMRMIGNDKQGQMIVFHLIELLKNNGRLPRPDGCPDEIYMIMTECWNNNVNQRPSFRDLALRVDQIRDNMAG
In short: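 Reaction held 1.5 nM biotinylated FLAG-JAK2 JH1, 50 nM tracer and 0.5 nM streptavidin-Tb in pH 7.5 Tris buffer; 2 mM ATP defined nonspecific binding.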

[4] = biological target: T4, catalytic domain (JH1, amino acids 808-1132) of human JAK2 (Homo sapiens, UniProt O60674); assay: JAK2 HTRF Enzyme Activity Assay; assay type: biochemical; details: ATP 30 μM, read-out: ENZ 30UMATP
T4 construct: catalytic domain (JH1, amino acids 808-1132) of human JAK2; His (N); purchased BPS Bioscience 40450; host or cells: baculovirus expression system
T4 sequence (O60674 808-1132): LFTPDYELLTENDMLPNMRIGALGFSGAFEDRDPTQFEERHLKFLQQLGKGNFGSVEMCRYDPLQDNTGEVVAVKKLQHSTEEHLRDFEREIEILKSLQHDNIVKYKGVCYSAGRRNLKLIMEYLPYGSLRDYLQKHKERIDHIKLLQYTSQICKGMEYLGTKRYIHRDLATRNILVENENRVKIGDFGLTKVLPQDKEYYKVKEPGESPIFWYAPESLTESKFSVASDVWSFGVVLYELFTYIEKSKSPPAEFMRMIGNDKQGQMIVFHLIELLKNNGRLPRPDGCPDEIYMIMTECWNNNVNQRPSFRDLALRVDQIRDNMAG
In short: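 IC50 values come from a four-parameter fit of HTRF signal (Eu-PY20 antibody/streptavidin-APC, EDTA-quenched). Reaction: 0.015 nM N-His JAK2 catalytic domain (baculovirus), 500 nM biotin-peptide, 30 μM or 1 mM ATP, Tris pH 7.5 buffer, 60 min, 25° C.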

Row | SMILES | IC50 [1] [µM] | IC50 [2] [µM] | IC50 [3] [µM] | IC50 [4] [µM]
1 | CN1C(=O)C2(CCN(C(C)(C)c3nnc[nH]3)CC2)c2c1cnc1[nH]c(-c3cnn(C)c3)c(-c3ccc4c(cnn4C)c3)c21 [Example 77, 1′-(2-(4H-1,2,4-Triazol-3-yl)propan-2-yl)-6-methyl-1-(1-methyl-1H-indazol-5-yl)-2-(1-methyl-1H-pyrazol-4-yl)-3,6-dihydro-7H-spiro[dipyrrolo[2,3-b:3′,2′-d]pyridine-8,4′-piperidin]-7-one] | ≤ 0.1 | ≤ 0.1 | 0.5 to 1.25 | 0.5 to 1.25
2 | CN1C(=O)C2(CCOC2)c2c1cnc1[nH]c(-c3ccc(CN4CCC(S(C)(=O)=O)CC4)cc3)c(-c3ccccc3)c21 (racemic) [Example 2, 6-Methyl-2-(4-((4-(methylsulfonyl)piperidin-1-yl)methyl)phenyl)-1-phenyl-3,4′,5′,6-tetrahydro-2′H,7H-spiro[dipyrrolo[2,3-b:3′,2′-d]pyridine-8,3′-furan]-7-one trifluoroacetate salt] | ≤ 0.1 | ≤ 0.1 | > 2.5 | > 2.5
3 | CN1C(=O)C2(CCN(C3(CC#N)CCC3)CC2)c2c1cnc1[nH]c(C3=CCC(C(=O)N4CCOCC4)CC3)c(-c3ccc4c(cnn4C)c3)c21 (racemic) [Example 34, 2-(1-(6-Methyl-1-(1-methyl-1H-indazol-5-yl)-2-(4-(morpholine-4-carbonyl)cyclohex-1-en-1-yl)-7-oxo-6,7-dihydro-3H-spiro[dipyrrolo[2,3-b:3′,2′-d]pyridine-8,4′-piperidin]-1′-yl)cyclobutyl)acetonitrile, trifluoroacetate salt] | ≤ 0.1 | ≤ 0.1 | 0.5 to 1.25 | 0.5 to 1.25
4 | COc1c(F)cc(-c2c(-c3cnn(CC(C)(C)O)c3)[nH]c3ncc4c(c23)C2(CCN(C3(CC#N)CCC3)CC2)C(=O)N4C)cc1F [Example 47, 2-(1-(1-(3,5-Difluoro-4-methoxyphenyl)-2-(1-(2-hydroxy-2-methylpropyl)-1H-pyrazol-4-yl)-6-methyl-7-oxo-6,7-dihydro-3H-spiro[dipyrrolo[2,3-b:3′,2′-d]pyridine-8,4′-piperidin]-1′-yl)cyclobutyl)acetonitrile, trifluoroacetate salt] | ≤ 0.1 | ≤ 0.1 | > 2.5 | > 2.5
5 | CCS(=O)(=O)N1CCC[C@@]2(CC1)C(=O)N(C)c1cnc3[nH]c(-c4cnn(C(C)C)c4)c(-c4ccc5c(cnn5C)c4)c3c12 (single isomer, unassigned) [Example 53b] | ≤ 0.1 | ≤ 0.1 | 0.1 to 0.5 | 0.1 to 0.5
6 | [2H]C([2H])([2H])n1ncc2cc(-c3c(-c4cnn(C)c4)[nH]c4ncc5c(c34)C3(CC4(CCN(C(=O)OC)CC4)C3)C(=O)N5C)ccc21 [Example 58, Methyl 6-methyl-2-(1-methyl-1H-pyrazol-4-yl)-1-(1-(methyl-d3)-1H-indazol-5-yl)-7-oxo-6,7-dihydro-3H-dispiro[dipyrrolo[2,3-b:3′,2′-d]pyridine-8,1′-cyclobutane-3′,4″-piperidine]-1″-carboxylate, trifluoroacetate salt] | ≤ 0.1 | ≤ 0.1 | 1.25 to 2.5 | 1.25 to 2.5
7 | CN1C(=O)C2(CCN(C(=O)CC3CCOCC3)C2)c2c1cnc1[nH]c(-c3ccc(CN4CCC(S(C)(=O)=O)CC4)cc3)c(-c3ccccc3)c21 (racemic) [Example 12, 6-Methyl-2-(4-((4-(methylsulfonyl)piperidin-1-yl)methyl)phenyl)-1-phenyl-1′-(2-(tetrahydro-2H-pyran-4-yl)acetyl)-3,6-dihydro-7H-spiro[dipyrrolo[2,3-b:3′,2′-d]pyridine-8,3′-pyrrolidin]-7-one trifluoroacetate salt] | 0.1 to 0.5 | 0.1 to 0.5 | > 2.5 | > 2.5
8 | CCS(=O)(=O)N1CC2(C1)CC1(C2)C(=O)N(C)c2cnc3[nH]c(-c4ccc(CN5CCC(C#N)CC5)cc4)c(-c4ccc5c(cnn5C)c4)c3c21 [Example 91, l-(4-(1-(Ethylsulfonyl)-6″-methyl-1″-(1-(methy-d3)-1H-indazol-5-yl)-7″-oxo-6″,7″-dihydro-3″H-dispiro[azetidine-3,1′-cyclobutane-3′,8″-dipyrrolo[2,3-b:3′,2′-d]pyridin]-2″-yl)benzyl)piperidine-4-carbonitrile, trifluoroacetate salt] | ≤ 0.1 | ≤ 0.1 | 1.25 to 2.5 | 1.25 to 2.5
9 | CN1C(=O)C2(CCN(C3(CC#N)CCC3)CC2)c2c1cnc1[nH]c(-c3cnn4c3CCCC4)c(-c3ccc4c(cnn4C)c3)c21 [Example 43, 2-(1-(6-Methyl-1-(1-methyl-1H-indazol-5-yl)-7-oxo-2-(4,5,6,7-tetrahydropyrazolo[1,5-a]pyridin-3-yl)-6,7-dihydro-3H-spiro[dipyrrolo[2,3-b:3′,2′-d]pyridine-8,4′-piperidin]-1′-yl)cyclobutyl)acetonitrile] | ≤ 0.1 | ≤ 0.1 | > 2.5 | > 2.5
10 | Cc1ncc(-c2c(-c3cnn(C)c3)[nH]c3ncc4c(c23)C2(CCN(c3ccncn3)CC2)C(=O)N4C)s1 [Example 17, 6-Methyl-2-(1-methyl-1H-pyrazol-4-yl)-1-(2-methylthiazol-5-yl)-1′-(pyrimidin-4-yl)-3,6-dihydro-7H-spiro[dipyrrolo[2,3-b:3′,2′-d]pyridine-8,4′-piperidin]-7-one, trifluoroacetate salt] | 0.1 to 0.5 | 0.1 to 0.5 | > 2.5 | > 2.5
11 | CN1C(=O)C2(CCN(C3(CC#N)CCC3)CC2)c2c1cnc1[nH]c(-c3cnn(C(C)(C)CO)c3)c(-c3ccc4c(cnn4C)c3)c21 [Example 37, 2-(1-(2-(1-(1-Hydroxy-2-methylpropan-2-yl)-1H-pyrazol-4-yl)-6-methyl-1-(1-methyl-1H-indazol-5-yl)-7-oxo-6,7-dihydro-3H-spiro[dipyrrolo[2,3-b:3′,2′-d]pyridine-8,4′-piperidin]-1′-yl)cyclobutyl)acetonitrile, trifluoroacetate salt] | ≤ 0.1 | ≤ 0.1 | 0.1 to 0.5 | 0.1 to 0.5
12 | CC(=O)N1CC(CC#N)(N2CCC3(CC2)C(=O)N(C)c2cnc4[nH]c(-c5cnn(C)c5)c(-c5ccccc5)c4c23)C1 [Example 24, 2-(1-Acetyl-3-(6-methyl-2-(1-methyl-1H-pyrazol-4-yl)-7-oxo-1-phenyl-6,7-dihydro-3H-spiro[dipyrrolo[2,3-b:3′,2′-d]pyridine-8,4′-piperidin]-1′-yl)azetidin-3-yl)acctonitrile, trifluoroacetate salt] | ≤ 0.1 | ≤ 0.1 | 0.5 to 1.25 | 0.1 to 0.5
13 | [2H]C([2H])([2H])n1ncc2cc(-c3c(-c4cnn(C)c4)[nH]c4ncc5c(c34)C3(CCN([C@](C)(CC#N)COC)CC3)C(=O)N5C)ccc21 (single isomer, unassigned) [Example 80a] | ≤ 0.1 | ≤ 0.1 | 1.25 to 2.5 | 1.25 to 2.5
14 | [2H]C([2H])([2H])n1ncc2cc(-c3c(-c4cnn(C)c4)[nH]c4ncc5c(c34)[C@@]3(CC[C@H](NS(=O)(=O)C4CC4)C3)C(=O)N5C)ccc21 (racemic) [Example 56, trifluoroacetate salt] | ≤ 0.1 | ≤ 0.1 | 1.25 to 2.5 | 1.25 to 2.5
15 | CN1C(=O)[C@]2(CC[C@@H](NS(=O)(=O)C3CC3)C2)c2c1cnc1[nH]c(-c3cnn(C)c3)c(-c3ccc4c(cnn4C)c3)c21 (racemic) [Example 55, trifluoroacetate salt] | ≤ 0.1 | ≤ 0.1 | 1.25 to 2.5 | 0.5 to 1.25
16 | CCS(=O)(=O)N1CC2(C1)CC1(C2)C(=O)N(C)c2cnc3[nH]c(-c4cnn(CC5CC5)c4)c(-c4ccc5c(cnn5C)c4)c3c21 [Example 87, 2″-(1-(Cyclopropylmethyl)-1H-pyrazol-4-yl)-1-(ethylsulfonyl)-6″-methyl-1″-(1-methyl-1H-indazol-5-yl)-3″,6″-dihydro-7″H-dispiro[azetidine-3,1′-cyclobutane-3′,8″-dipyrrolo[2,3-b:3′,2′-d]pyridin]-7″-one, trifluoroacetate salt] | ≤ 0.1 | ≤ 0.1 | 1.25 to 2.5 | 1.25 to 2.5
